# Test system: LLC / LL/2-Luc2 / E0771 bone tumors
# Experiment: Local tumor burden (bioluminescence imaging, thigh circumference ratio)
# Type: in vivo, mouse
# Experimental: Culture of LLC cells and measurement of local tumor burden: Murine LLC cells were cultured in high glucose (4.5 g/L) Dulbecco's Modified Eagle Medium (DMEM; ThermoFisher) supplemented with 10% fetal bovine serum (Gibco, ThermoFisher) and 1% Antibiotic-Antimycotic solution containing penicillin, streptomycin, and Amphotericin B (ThermoFisher, 15240062). Cells were cultured in the presence of 5% CO2 at 37° C. Cells were passaged using a 0.05% trypsin digest once they achieved 70% confluency. Prior to in vivo injection, cells were harvested with 0.05% trypsin digestion followed by several washes in PBS. Cell counts were performed using a hemocytometer and diluted to achieve a suspension of 1×10^8 ml-1 cells in PBS. To determine whether i.t. STING agonists altered local tumor burden induced by femoral inoculation with LLC cells, mice were lightly anesthetized with isoflurane at the conclusion of the experiment, followed by measurement of the total circumference of the widest aspect of the thigh, which accurately reflects tumor burden. Ratios were computed between the ipsilateral (LLC-inoculated) and contralateral (tumor-free) legs.
# In vivo bioluminescence imaging. RediJect D-Luciferin Ultra was purchased from PerkinElmer (770505). Prior to in vivo imaging, mice were shaved in the region of interest depicted in the figure. Bioluminescence images of LL/2-Luc2 bearing mice were captured with IVIS Lumina III system 15 min after intraperitoneal injection of D-Luciferin (30 mg/kg). The IVIS acquisition control panel was set to following conditions for imaging: Exposure time=auto, Binning=medium, F/Stop=1, Emission Filter=open. The bioluminescence images were analyzed using Living Image software from PerkinElmer.
# STING agonists suppress local bone cancer tumor burden and further metastasis. Intratumoral injection of STING agonists has been reported to reduce tumor growth by promoting T cell-mediated antitumor immunity in several preclinical animal studies. It is unknown, however, whether systemic administration of STING agonists can attenuate tumor progression in the bone marrow, which is generally regarded as an overwhelmingly immunosuppressive tumor microenvironment. To answer this question, luciferase-labeled LLC cells (LL/2-LUC2 cell line) were used to establish the metastatic bone cancer model via intrafemoral inoculation, thereby enabling measurement of local tumor burden by in vivo bioluminescent imaging. Mice were treated with vehicle or DMXAA (20 mg/kg, i.p. at d3 and d7), followed by in vivo bioluminescence imaging at d8, d11, and d15. […] To quantify this, we measured the ratio of the maximum thigh circumference (ipsilateral/contralateral), which accurately reflects local tumor volume. […]
structure (smiles),measurement,setting,value
"Cc1ccc2c(=O)c3cccc(CC(=O)O)c3oc2c1C [DMXAA, 2-(5,6-dimethyl-9-oxo-9H-xanthen-4-yl)acetic acid]","local tumor burden (total flux, bioluminescence)","LL/2-Luc2, 20 mg/kg i.p. d3 and d7",lower local tumor burden at d11 and d15
same,"local tumor burden, Batf3^+/+ vs Batf3^−/−",d17,only tumor-bearing Batf3^+/+ mice but not Batf3^−/− mice exhibited a decrease in local tumor burden
same,"ratio of maximum thigh circumference, WT vs Rag1^−/−",d17,effectively reduced the ratio of maximum thigh circumference only in WT mice but not in Rag1^−/− mice
same,ratio of maximum thigh circumference (ipsilateral/contralateral),"day 17, LLC and E0771 models",could reduce the ratio of maximum thigh circumference

# Reference: patent publication US20230158057A1, “COMPOSITIONS AND METHODS FOR THE TREATMENT OF PAIN” (Duke University, priority 2020, published 2023)
